Experiments:
Test in all cases: drug sensitivity score (DSS3, normalised partial AUC of % inhibition dose-response) (DSS (score)); higher = more sensitive (stronger inhibition of viability); extreme values may be limits of the assay
FMOC06 = patient-derived mucinous ovarian cancer cells; details: 72 h; library: FO5A; assay format: 2D, 384-well, CellTiter-Glo
In short: (§1)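 Early-passage (under 10) patient-derived ovarian cancer cells were dispensed onto 384-well flat clear-bottom plates pre-plated with compounds at five concentrations spanning a 10,000-fold range, then incubated 72 h at 37 °C, 5% CO2. Viability was read with CellTiter-Glo, and the data were processed in Breeze. The drug sensitivity score is a partial area under the percent-inhibition dose-response curve divided by the log of the upper asymptote, with higher values meaning greater sensitivity.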

FMOC28 = patient-derived low-grade serous ovarian cancer cells; details: 72 h; library: FO5A; assay format: 2D, 384-well, CellTiter-Glo
In short: as §1

FMOC09 = patient-derived high-grade serous ovarian cancer cells; details: 72 h; library: FO5A; assay format: 2D, 384-well, CellTiter-Glo
In short: as §1

FMOC27 = patient-derived low-grade serous ovarian cancer cells; details: 72 h; library: FO5A; assay format: 2D, 384-well, CellTiter-Glo
In short: as §1

FMOC04 = patient-derived high-grade serous ovarian cancer cells; details: 72 h; library: FO5A; assay format: 2D, 384-well, CellTiter-Glo
In short: as §1

FMOC24 = patient-derived high-grade serous ovarian cancer cells; details: 72 h; library: FO5A; assay format: 2D, 384-well, CellTiter-Glo
In short: as §1

FMOC25_2 = patient-derived low-grade serous ovarian cancer cells; details: 72 h; library: FO5A; assay format: 2D, 384-well, CellTiter-Glo
In short: as §1

FMOC14 = patient-derived high-grade serous ovarian cancer cells; details: 72 h; library: FO5A; assay format: 2D, 384-well, CellTiter-Glo
In short: as §1

FMOC22 = patient-derived mucinous ovarian cancer cells; details: 72 h; library: FO5A; assay format: 2D, 384-well, CellTiter-Glo
In short: as §1

FMOC02_2 = patient-derived low-grade serous ovarian cancer cells; details: 72 h; library: FO5A; assay format: 2D, 384-well, CellTiter-Glo
In short: as §1

FMOC17 = patient-derived low-grade serous ovarian cancer cells; details: 72 h; library: FO5A; assay format: 2D, 384-well, CellTiter-Glo
In short: as §1

FMOC25_1 = patient-derived low-grade serous ovarian cancer cells; details: 72 h; library: FO4B; assay format: 2D, 384-well, CellTiter-Glo
In short: as §1

FMOC11 = patient-derived high-grade serous ovarian cancer cells; details: 72 h; library: FO5A; assay format: 2D, 384-well, CellTiter-Glo
In short: as §1

FMOC03 = patient-derived mucinous ovarian cancer cells; details: 72 h; library: FO5A; assay format: 2D, 384-well, CellTiter-Glo
In short: as §1

FMOC02_1 = patient-derived low-grade serous ovarian cancer cells; details: 72 h; library: FO5A; assay format: 2D, 384-well, CellTiter-Glo
In short: as §1

FMOC02_3 = patient-derived low-grade serous ovarian cancer cells; details: 72 h; library: FO5A; assay format: 2D, 384-well, CellTiter-Glo
In short: as §1

| SMILES | drug sensitivity score (FMOC06) | drug sensitivity score (FMOC28) | drug sensitivity score (FMOC09) | drug sensitivity score (FMOC27) | drug sensitivity score (FMOC04) | drug sensitivity score (FMOC24) | drug sensitivity score (FMOC25_2) | drug sensitivity score (FMOC14) | drug sensitivity score (FMOC22) | drug sensitivity score (FMOC02_2) | drug sensitivity score (FMOC17) | drug sensitivity score (FMOC25_1) | drug sensitivity score (FMOC11) | drug sensitivity score (FMOC03) | drug sensitivity score (FMOC02_1) | drug sensitivity score (FMOC02_3) |
| --- | --- | --- | --- | --- | --- | --- | --- | --- | --- | --- | --- | --- | --- | --- | --- | --- |
| CC(C)N(CCCNC(=O)Nc1ccc(C(C)(C)C)cc1)C[C@H]1O[C@@H](n2cc(Br)c3c(N)ncnc32)[C@H](O)[C@@H]1O [SGC0946] | 1.4 | 3.3 | 0 | 1.8 | 0.95 | 3.95 | 2.5 | 0 | 0.1 | 2.8 | 2 | 0 | 0.6 | 0.1 | 1.2 | 0.9 |
| COc1ccc(CCc2nc3cc(-c4c(C)noc4C)ccc3n2C[C@H](C)N2CCOCC2)cc1Cl [SGC-CBP30] | 4.6 | 2.4 | 2.5 | 3.1 | 1.3 | 5.6 | 6.1 | 1 | 2.9 | 3.3 | 1.4 | 0.8 | 4.6 | 2.8 | 4.5 | 2 |
| CC[C@H](CO)Nc1nc(NCc2ccccc2)c2ncn(C(C)C)c2n1 [Seliciclib] | 0.1 | 1.2 | 0 | 0 | 0.1 | 1.35 | 2.1 | 1.5 | 0 | 4.3 | 1.4 | 0.9 | 0 | 1.5 | 4.1 | 3.5 |
| CO[C@H]1C[C@@H]2CC[C@@H](C)[C@@](O)(O2)C(=O)C(=O)N2CCCC[C@H]2C(=O)O[C@H]([C@H](C)C[C@@H]2CC[C@@H](O)[C@H](OC)C2)CC(=O)[C@H](C)/C=C(\C)[C@@H](O)[C@@H](OC)C(=O)[C@H](C)C[C@H](C)/C=C/C=C/C=C/1C [Sirolimus] | 2.5 | 3.3 | 1.4 | 3.1 | 1.1 | 6.1 | 6.3 | 1 | 4 | 7.3 | 4.7 | 8.9 | 2.1 | 2 | 6.3 | 10 |
| Cc1c(C(=O)Nc2ccc(N3C[C@@H](C)O[C@@H](C)C3)nc2)cccc1-c1ccc(OC(F)(F)F)cc1 [Sonidegib] | 0 | 2.1 | 0.1 | 0 | 0 | 2.45 | 0 | 0 | 0 | 0.1 | 3 | 0 | 0.4 | 0 | 2.1 | 1.3 |
| C=CCN(/C=C1/C(=O)O[C@H](COC)[C@@]2(C)C1=C(O)C(=O)C1=C2[C@H](OC(C)=O)C[C@]2(C)C(=O)CC[C@@H]12)CC=C [Sonolisib] | 0 | 0.4 | 0 | 0 | 0 | 0.25 | 0 | 0 | 0 | 0.3 | 0 | 0 | 0 | 0 | 0 | 0.4 |
| CNC(=O)c1cc(Oc2ccc(NC(=O)Nc3ccc(Cl)c(C(F)(F)F)c3)cc2)ccn1 [Sorafenib] | 0 | 0 | 0 | 0 | 0 | 0 | 0 | 0 | 0 | 0 | 0.5 | 0 | 0 | 0 | 0 | 0 |
| CN1CCN(c2nc(C3=C(c4c[nH]c5ccccc45)C(=O)NC3=O)c3ccccc3n2)CC1 [Sotrastaurin] | 0 | 0 | 0 | 0 | 0 | 1.85 | 0 | 0 | 0 | 4.3 | 3.9 | 0 | 2.1 | 0 | 3 | 9.9 |
| C=CC(=O)Nc1cccc(Nc2nc(Nc3ccc(OCCOC)cc3)ncc2F)c1 [Spebrutinib] | 0 | 1.6 | 1.5 | 2.2 | 0 | 0 | 2.9 | 0 | 0 | 2.9 | 2.3 | 0 | 0.9 | 0 | 3.1 | 5.7 |
| CC(C)n1cnc2c(NCCc3ccc(O)cc3)nc(-c3csc4ccccc34)nc21 [StemRegenin 1] | 4.5 | 2.9 | 0.3 | 6.9 | 1.95 | 6.15 | 6.1 | 0.6 | 2.7 | 6 | 6.8 | 1.6 | 1 | 4.8 | 4.2 | 4.7 |
| CCN(CC)CCNC(=O)c1c(C)[nH]c(/C=C2\C(=O)Nc3ccc(F)cc32)c1C [Sunitinib] | 0 | 0 | 0 | 0 | 0 | 0 | 0.5 | 0 | 0 | 0.9 | 0.1 | 0 | 0 | 0 | 2.3 | 0.6 |
